The source of these data is patent US9463173B2, “Compositions and methods for treating obesity and obesity-related conditions” (THE JOHNS HOPKINS UNIVERSITY, priority 2014, dated 2016).

Series [1] relates to AMPK. As to the kind of experiment: AMPK/ACC phosphorylation in primary mouse hepatocytes (immunoblot). In kind it is cell-based. Also noted: Phosphorylation (Ser79) of ACC / AMPK protein levels / ACC protein levels / Phosphorylation of ACC stimulated by VPA, in presence of AMPK inhibitor: dose or concentration left out as unconfirmed. Particulars: for Levels of phosphorylated AMPK/ACC compared with VPA: 20 mM metabolite vs 800 mM VPA, 2 hours; for Levels of phosphorylated AMPK/ACC at higher concentration: 100 mM metabolite (data not shown). Here is the method: Proteins (20 mg) were resolved by sodium dodecyl sulfate polyacrylamide gel electrophoresis, electrotransferred to a nitrocellulose membrane, and probed using antibodies against AMPKa, phosphorylated (p-) AMPKa (Thr172), ACC, p-ACC (Ser79), and b-actin (obtained from Cell Signaling Technology, Danvers, Mass.).
(In general: In western blotting, separated proteins are transferred to a membrane and probed.)

The next series has as its target human recombinant HDAC1 (Homo sapiens, UniProt Q13547). As to the kind of experiment: HDAC activity fluorometric assay, recombinant HDAC1. It is filed as biochemical. Particulars: 800 mM VPA; 1 mM TSA; 20 mM metabolites; mean ± S.D. The method, then:
(§1) FIG. 5A-5D. […] Deacetylation was measured using a fluorimetric assay. […] AMPKa was immunoprecipitated and immunoblotted for AMPKa and acetylated lysine (D). Immunoblots shown in D are representative of three independent experiments. Data in graphs are reported as the mean […] S.D. of samples from four independent experiments. […] DMSO, dimethylsulfoxide.
(§2) Analysis of HDAC activity was performed using an HDAC activity fluorometric assay kit (Caymen Chemicals, Ann Arbor, Mich.) and was carried out according to the manufacturer's instructions. Crude nuclear extracts were prepared from primary mouse hepatocytes as described in the manufacturer's instructions.

Series [2] concerns HDAC activity of mouse liver nuclear extracts. As to the kind of experiment: HDAC activity fluorometric assay, crude nuclear extracts. It is filed as biochemical. Also noted: dose or concentration left out as unconfirmed. Particulars: mean ± S.D. Here is the method:
as §1, §2

The conditions of series [3]: 10 mg/kg/day in adults; cited from earlier work.
A further series concerns AMPKa. As to the kind of experiment: AMPKa acetylation status in hepatocytes (immunoprecipitation, acetylated lysine immunoblot). In kind it is cell-based, mouse. The method, then:
as §1

For series [4], the system named is AMPK. As to the kind of experiment: AMPK/ACC phosphorylation in primary human hepatocytes (immunoblot). The conditions noted are these: 1 to 24 hours; following 1 hour; each of four donors. Also on record: dose or concentration left out as unconfirmed. It is filed as cell-based. The method, then:
Primary human hepatocytes were obtained from XenoTech LLC (Lenexa, Kans.). Four preparations were used: […]. The hepatocytes had reported viabilities of 95.4, 74.7, 77.9, and 74.9%, respectively. Upon receipt, the shipping medium was changed to Williams' E medium containing 10% FBS, penicillin, streptomycin, and L-glutamine. Following 24 hours of incubation at 37° C. and 5% CO2, the media was changed to 5% FBS, penicillin, streptomycin, and L-glutamine 4 hours prior to treatments.
Cells were harvested as previously described (Bumpus, 2011). Proteins ([…]) were resolved by sodium dodecyl sulfate polyacrylamide gel electrophoresis, electrotransferred to a nitrocellulose membrane, and probed using antibodies against AMPKa, phosphorylated (p-) AMPKa (Thr172), ACC, p-ACC (Ser79), and b-actin (obtained from Cell Signaling Technology, Danvers, Mass.).

Another series deals with ob/ob mice. Kind of series: In vivo mouse study, 14 days via drinking water. Particulars: for Accumulation of fats in the liver (histology) compared with untreated mice: hematoxylin and eosin staining; for Body mass day 1: day 1 prior to treatment; for Body mass day 7 / Body mass day 14: 0.26% (w/v) VPA or 0.5% (w/v) metformin in drinking water. The method, then:
FIG. 6A-6E. […] A section of each liver was analyzed using hemotoxylin and eosin staining Histology images are representative of four mice per treatment group (A). The mass of each liver was measured and calculated as a ratio to body mass (B). Serum glucose (C) and serum triglyceride (D) concentrations were measured using colorimetric assays. ALT was measured using a colorimetric assay to assess for hepatotoxicity (E). Data in graphs are reported as the mean […] S.D. of four mice per cohort.
All treatments of mice as a part of this study were in accordance with protocols that were approved by the Institutional Animal Care and Use Committee of The Johns Hopkins University School of Medicine. […] Body masses were recorded on day 1 prior to treatment, day 7, and day 14. After 14 days of drug treatments, all mice were euthanized by isoflurane inhalation followed by cervical dislocation, and whole blood was collected immediately. The livers were weighed immediately, rinsed in cold phosphate-buffered saline, and fixed in 10% formalin for 48 hours for hematoxylin and eosin staining.
Serum glucose was analyzed using a Colorimetric Glucose Assay obtained from BioVision, Inc. (Milpitas, Calif.) and was performed according to manufacturer's instructions. Serum triglycerides were analyzed utilizing a Serum Triglyceride Determination Kit obtained from Sigma-Aldrich and was performed according to manufacturer's instructions.

human recombinant HDAC1, sequence (Q13547 whole entry): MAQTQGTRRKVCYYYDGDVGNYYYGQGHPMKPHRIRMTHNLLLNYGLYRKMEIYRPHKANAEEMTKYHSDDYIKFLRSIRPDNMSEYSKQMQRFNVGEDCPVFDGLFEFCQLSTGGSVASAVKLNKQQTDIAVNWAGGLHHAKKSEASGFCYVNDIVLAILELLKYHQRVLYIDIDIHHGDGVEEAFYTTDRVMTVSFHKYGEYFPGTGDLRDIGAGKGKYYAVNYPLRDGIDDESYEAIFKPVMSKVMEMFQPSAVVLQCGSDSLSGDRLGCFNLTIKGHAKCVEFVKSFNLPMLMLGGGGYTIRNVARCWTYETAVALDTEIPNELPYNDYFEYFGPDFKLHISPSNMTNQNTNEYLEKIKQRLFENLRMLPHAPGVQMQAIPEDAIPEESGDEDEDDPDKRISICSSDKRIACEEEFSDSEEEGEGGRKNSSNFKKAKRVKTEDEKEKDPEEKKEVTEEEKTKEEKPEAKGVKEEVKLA

For the molecule `C=CCC(CCC)C(=O)O` (racemic) [4-ene-VPA, (+/−)-2-Propyl-4-pentenoic Acid], in the series with AMPK [1], the “Levels of phosphorylated AMPK/ACC compared with VPA” value is given as “greater than treatment with VPA itself” and the “Levels of phosphorylated AMPK/ACC at higher concentration” value was “commensurate with those observed using 20 mM of metabolites”. The deacetylation on human recombinant HDAC1 is on record as 81.5±15.5%. Further, the “deacetylation as compared with samples treated with vehicle only” value in series [2] stood at 90.1±3.9%.
For `CC/C=C(\CCC)C(=O)O` [2-ene-VPA, (E,Z) 2-Propyl-2-pentenoic Acid], in the series on AMPK [1], the “Levels of phosphorylated AMPK/ACC compared with VPA” value is given as “greater than treatment with VPA itself” and the “Levels of phosphorylated AMPK/ACC at higher concentration” value is given as “commensurate with those observed using 20 mM of metabolites”. Also, the deacetylation on human recombinant HDAC1 is given as 90±9.1%. The “deacetylation as compared with samples treated with vehicle only” value in series [2] was 93.6±3.6%.
Take `CCCC(C(=O)O)C(O)CC` (stereo not drawn) [3-OH-VPA, 3-Hydroxy-2-propylpentanoic Acid]: in the series on AMPK [1], the “Levels of phosphorylated AMPK/ACC compared with VPA” value is recorded as “greater than treatment with VPA itself” and the “Levels of phosphorylated AMPK/ACC at higher concentration” value is reported as “commensurate with those observed using 20 mM of metabolites”. Also, the deacetylation on human recombinant HDAC1 worked out at 86±16.8%. For the same molecule, the “deacetylation as compared with samples treated with vehicle only” value in series [2] came to 98±3.9%.
In the case of `CCCC(C(=O)[O-])C(=O)CC.[Na+]` (stereo not drawn) [3-keto-VPA, 3-oxo-2-propyl-pentanoic Acid Sodium Salt], the deacetylation at human recombinant HDAC1 turned out to be 90.9±15.2%. The “deacetylation as compared with samples treated with vehicle only” value in series [2] is listed as 94±7.3%.
On to `Nn1nnc2ccccc21` [ABT, 1-aminobenzotriazole], for which, in the series with AMPK [1] (1 mM ABT 1 hour prior to VPA for 2 hours), the “Levels of phosphorylated AMPK, ABT and VPA compared with ABT alone” value was “not elevated”.
In the case of `c1cc(-c2cnn3cc(-c4ccc(OCCN5CCCCC5)cc4)cnc23)ccn1` [Compound C, 6-[4-(2-piperidin-1-ylethoxy)phenyl]-3-pyridin-4-ylpyrazolo[1,5-a]pyrimidine], the “Phosphorylation of ACC stimulated by VPA, in presence of AMPK inhibitor” value in the series with AMPK [1] (Compound C 30 minutes prior to VPA for 2 hours) is listed as “abrogated”.
In the case of `CC(/C=C/C(=O)NO)=C\[C@@H](C)C(=O)c1ccc(N(C)C)cc1` [TSA, trichostatin A], the “deacetylation as compared with samples treated with vehicle only” value in series [2] is 34.6±4.3%.
Consider `CCCC(CCC)C(=O)O` [VPA, valproic acid], for which the “Serum concentrations of VPA” value in series [3] is 400 to 1000 µM. The “Acetylation of AMPKa compared with vehicle treatment samples” value with AMPKa was “commensurate”. Besides, the “Concentration at which maximal phosphorylation of AMPK and ACC was observed” value with AMPK [1] (2-hour treatment, concentrations from 200 mM to 2 mM) is recorded as 800 mM. Besides, in the series with AMPK [1] (VPA), the ACC protein levels entry is reported as “not significantly different” and the AMPK protein levels entry is “did not change significantly”. Also, the “Phosphorylation (Ser79) of ACC” value in the series on AMPK [1] (VPA, time course 1-24 hours) is “observed”. Also, the deacetylation on human recombinant HDAC1 came out at 73.2±5%. In the series with AMPK [4], the “Phosphorylation of AMPK and ACC” value is reported as “observed”. The “deacetylation as compared with samples treated with vehicle only” value in series [2] turned out to be 76.4±1.2%. Moreover, in the series with ob/ob mice (14 days), the “Accumulation of fats in the liver (histology) compared with untreated mice” value was “marked reduction”. In the series on ob/ob mice, the “Body mass day 1” value was determined as 50.2 ± 3 g, the “Body mass day 7” value turned out to be 51.8 ± 3 g and the “Body mass day 14” value stood at 53.8 ± 2.7 g. Also, the “Abnormalities in the histology of treated livers” value in the series with ob/ob mice (mouse, in vivo) is listed as “did not detect any abnormalities”.
As for `CN(C)C(=N)N=C(N)N` [metformin, Metformin], in the series on ob/ob mice (14 days), the “Ratio of liver mass to body mass compared with untreated mice” value is “significantly decreased”, the “Serum ALT activity” value turned out to be 13.3±4 mU/ml, the “Serum glucose concentrations compared with untreated mice” value is reported as “significantly decreased” and the “Serum triglyceride concentrations compared with untreated mice” value is listed as “decreased”. In addition, the “Accumulation of fats in the liver (histology) compared with untreated mice” value in the series with ob/ob mice (14 days) is listed as “marked reduction”. Also, in the series on ob/ob mice, the “Body mass day 1” value came out at 45.4 ± 6 g, the “Body mass day 7” value came to 47.4 ± 5.6 g and the “Body mass day 14” value amounted to 50 ± 6.1 g.
